The source of these data is patent publication US20180250295A1, “Treatment of Motor and Movement Disorder Side Effects Associated with Parkinson's Disease Treatments” (Psychogenics, Inc., priority 2012, published 2018).

SMILES strings stand for the structures.

The subject of data set [1] is Parkinson's patients with L-DOPA induced dyskinesias. Briefly: Levodopa challenge-dose study of oral eltoprazine, dyskinesia ratings (CDRS, Rush DRS). It is filed as in vivo, human. Conditions: for levodopa-induced dyskinesia (LID) measured by the CDRS scale: compared to placebo. The text has this:
This example describes a multicenter, randomized, double-blind, placebo-controlled, dose finding study of oral eltoprazine in Parkinson's patients with L-DOPA induced dyskinesias, in a levodopa challenge-dose setting in Parkinson's Disease. A total of 22 patients participated in the study, out of which 18 patients fulfilled the protocol in terms of eligibility, interventions, and outcome assessment.
This study also assessed the safety and tolerability of eltoprazine in adults with Parkinson's Disease using the following measures: a) population mean values for the change in dyskinesia ratings between the placebo and screening baseline values and any of the eltoprazine dosages used, calculated as the peak-effect on CDRS of any study medication; b) population mean values for the change in dyskinesia ratings between the placebo and screening baseline values and any of the eltoprazine dosages used, calculated as the AuC on Rush DRS of any study medication; c) any changes in the UPDRS-III total score; d) any change in the diary data set, between the baseline and placebo and any of the three study medication tests; e) any deterioration of the HADS scores after study medication compared with placebo; f) any development of depression over the course of the study period, determined by the Montgomery Asberg Depression Rating Scale (MADRS) and clinical judgment; g) comparison between the effects on Rush Dyskinesia Rating Scale (DRS) and Clinical Dyskinesia Rating Scale (CDRS) Area under the Curve (AuC) and peak of dose effects for the three study medication dosages.
During the first visit, patients underwent screening for inclusion/exclusion criteria and safety assessments. Symptoms of parkinsonism, depression, and anxiety were assessed, and screening for significant L-DOPA dyskinesias were conducted using a challenge dose (150%) of L-DOPA. Subjects who were taking a prohibited medication were required to complete a washout period of appropriate length, as determined by the investigator. […]

Data set [2] shares this test system. Briefly: Levodopa challenge-dose study, UPDRS-III rating of parkinsonian symptoms (L-DOPA efficacy). It is filed as in vivo, human. The text has this:
(§1) This example describes a multicenter, randomized, double-blind, placebo-controlled, dose finding study of oral eltoprazine in Parkinson's patients with L-DOPA induced dyskinesias, in a levodopa challenge-dose setting in Parkinson's Disease. A total of 22 patients participated in the study, out of which 18 patients fulfilled the protocol in terms of eligibility, interventions, and outcome assessment. […]
During each of five visits, and after a two-hour fast, each patient received a challenge dosage (150%—up to a maximum of 250 mg) of levodopa. […] The patients were periodically recorded for 180 minutes after treatment, and the videos were evaluated in a blinded manner. […]
Filming occurred 30 minutes prior to, and every 30 minutes up to 180 minutes after a challenge test of L-DOPA and study medication. […] Video taped records of each sequence were assessed by separate individual qualified raters at both of the two clinical centers.
Analyses were done on both the intention-to-treat (ITT) and per protocol (PP) population, if applicable. The change between test sessions of the highest observed Unified Parkinson's Disease Rating Scale-III (UPDRS) within each session will be calculated between the randomised placebo test session and each active test session and will be analysed with Wilcoxon Signed Rank test on the ITT population.

For data set [3] the test system is unchanged. Briefly: Safety and tolerability of eltoprazine in the levodopa challenge-dose study. It is filed as in vivo, human. Conditions: single oral doses of 2.5 mg, 5 mg, 7.5 mg.
Text: as §1

A further data set has as its system 5-HT1. Conditions: with respect to all receptors other than 5-HT1; cited from earlier work.
For a further data set, the system named is 5-HT1d receptor. Conditions: compared with serotonin; cited from earlier work.
The next data set deals with T1, 5-HT1a receptor (Homo sapiens, UniProt P08908).
T1 sequence (P08908 1-422): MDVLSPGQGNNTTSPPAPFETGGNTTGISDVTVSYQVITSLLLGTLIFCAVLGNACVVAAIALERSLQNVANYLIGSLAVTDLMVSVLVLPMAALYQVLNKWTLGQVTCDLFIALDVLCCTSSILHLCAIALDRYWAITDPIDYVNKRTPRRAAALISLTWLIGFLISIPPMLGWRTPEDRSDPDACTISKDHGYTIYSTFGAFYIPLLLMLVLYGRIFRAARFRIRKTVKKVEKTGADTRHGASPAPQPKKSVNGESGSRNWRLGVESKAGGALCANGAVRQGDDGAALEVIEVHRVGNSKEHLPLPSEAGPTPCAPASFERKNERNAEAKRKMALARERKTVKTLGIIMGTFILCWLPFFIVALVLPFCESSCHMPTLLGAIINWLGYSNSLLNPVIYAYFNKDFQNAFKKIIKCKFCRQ
The settings on record: relative to 5-HT1b; cited from earlier work.

The target of a further data set is 5-HT1b receptor (Homo sapiens, UniProt P28222). Conditions: relative to 5-HT1a; cited from earlier work.
In the next data set the test system is dopamine receptors. Conditions: cited from earlier work.

Chain of 5-HT1b receptor (P28222 whole entry): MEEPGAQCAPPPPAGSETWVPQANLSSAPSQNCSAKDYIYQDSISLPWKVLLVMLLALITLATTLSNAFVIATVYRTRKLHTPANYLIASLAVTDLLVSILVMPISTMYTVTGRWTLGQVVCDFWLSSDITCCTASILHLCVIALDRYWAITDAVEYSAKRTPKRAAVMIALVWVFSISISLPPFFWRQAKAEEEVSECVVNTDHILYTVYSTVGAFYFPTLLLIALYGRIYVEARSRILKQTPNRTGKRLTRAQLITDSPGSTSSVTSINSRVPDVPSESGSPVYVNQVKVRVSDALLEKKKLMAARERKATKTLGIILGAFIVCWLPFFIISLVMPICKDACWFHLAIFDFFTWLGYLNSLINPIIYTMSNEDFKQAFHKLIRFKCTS

As to `c1cc2c(c(N3CCNCC3)c1)OCCO2` [eltoprazine, 1-(2,3-dihydro-1,4-benzodioxanyl-5-yl) piperazine], in data set [1] (5 mg single oral dose), the “LID as measured by the Rush Scale AUC” value is on record as “reduced LID in PD patients statistically significantly”. The “levodopa-induced dyskinesia (LID) measured by the CDRS scale” value in data set [1] (5 mg single oral dose, p=0.0007, L-DOPA challenge dose 150%) is recorded as “statistically significantly reduced LID”. In data set [1] (7.5 mg single oral dose, p=0.0467, L-DOPA challenge dose 150%), the “levodopa-induced dyskinesia (LID) measured by the CDRS scale” value is “statistically significantly reduced LID”. Besides, the “L-DOPA efficacy as measured by the UPDRS score” value in data set [2] (5 mg and 7.5 mg doses) is “did not affect L-DOPA efficacy”. In addition, the “change in UPDRS-III of parkinsonian symptoms after eltoprazine administration” value in data set [2] (FIG. 2) is listed as “no significant change”. In data set [3], the serious adverse events entry was “no serious adverse events” and the tolerability result was “well tolerated”. For the same compound, the binding selectivity result with 5-HT1 was “selective 5-HT1 ligand”. Moreover, in the data set with 5-HT1d receptor, the “affinity for the 5-HT1d receptor” value is reported as “lower affinity for the 5-HT1d receptor”. Moreover, at 5-HT1a receptor, the “agonism and affinity at the 5-HT1a receptor” value is “mixed 5-HT1a/5-HT1b receptor agonist with roughly equipotent affinity”. Moreover, the “agonism and affinity at the 5-HT1b receptor” value at 5-HT1b receptor is listed as “mixed 5-HT1a/5-HT1b receptor agonist with roughly equipotent affinity”. The “affinity for dopamine receptors” value with dopamine receptors is reported as “no relevant affinity for dopamine receptors”.
